US10219516B2, “Molecules having pesticidal utility, and intermediates, compositions, and processes, related thereto” (priority 2015, dated 2019)
Like-named read-outs stand apart in the source and are kept apart here.

Key:
[1] = test system: Beet Armyworm (Spodoptera exigua, LAPHEG); experiment: Bioassay on Beet Armyworm (BAW), 128-well diet tray assay; type: in vivo
Protocol: (§1) Certain molecules disclosed in this document were tested against BAW and CL using procedures described in the following examples. In the reporting of the results, the “BAW & CL Rating Table” was used (See Table Section).
Bioassays on BAW were conducted using a 128-well diet tray assay. One to five second instar BAW larvae were placed in each well (3 mL) of the diet tray that had been previously filled with approximately 1.5 mL of artificial diet to which 50 μg/cm^2 of the test molecule (dissolved in 50 μL of 90:10 acetone-water mixture) had been applied (to each of eight wells) and then allowed to dry. Trays were covered with a clear self-adhesive cover, vented to allow gas exchange, and held at 25° C., 14:10 light-dark for five to seven days. Percent mortality was recorded for the larvae in each well; activity in the eight wells was then averaged. The results are indicated in the table entitled “Table ABC: Biological Results” (See Table Section).

[2] = test system: Cabbage Looper (Trichoplusia ni, TRIPNI); experiment: Bioassay on Cabbage Looper (CL), 128-well diet tray assay; type: in vivo; conditions: for pest or weed control at 50 µg/cm2: Trichoplusia ni
Protocol: as §1
Bioassays on CL were conducted using a 128-well diet tray assay. one to five second instar CL larvae were placed in each well (3 mL) of the diet tray that had been previously filled with 1 mL of artificial diet to which 50 μg/cm^2 of the test molecule (dissolved in 50 μL of 90:10 acetone-water mixture) had been applied (to each of eight wells) and then allowed to dry. Trays were covered with a clear self-adhesive cover, vented to allow gas exchange, and held at 25° C., 14:10 light-dark for five to seven days. Percent mortality was recorded for the larvae in each well; activity in the eight wells was then averaged. The results are indicated in the table entitled “Table ABC: Biological Results” (See Table Section).

[3] = Species BAW (Beet Armyworm), read-out: BAW (Biological Results, rating)
[4] = Species CL (Cabbage Looper), read-out: CL (Biological Results, rating)
[5] = Beet Armyworm, 128-well diet tray assay, read-out: BAW rating
[6] = Cabbage Looper, 128-well diet tray assay, read-out: CL rating

| Structure (SMILES) | pest or weed control at 50 µg/cm2 [1, 3] | pest or weed control at 50 µg/cm2 [1, 5] | also measured |
| --- | --- | --- | --- |
| N#Cc1ccc(NC(=O)c2cc(NC(=O)[C@H]3[C@H](c4cc(Cl)cc(Cl)c4)C3(Cl)Cl)ccc2Cl)cc1 (relative stereo) [F5, trans-2-Chloro-N-(4-cyanophenyl)-5-(2,2-dichloro-3-(3,5-dichlorophenyl)cyclopropane-1-carboxamido)benzamide] | 50 to 100% |  | pest or weed control at 50 µg/cm2 [2, 4]: 50 to 100% |
| O=C(Nc1ccc(C(F)(F)F)cc1)c1cc(NC(=O)[C@H]2[C@H](c3cc(Cl)cc(Cl)c3)C2(Cl)Cl)ccc1Cl (relative stereo) [F6, trans-2-Chloro-5-(2,2-dichloro-3-(3,5-dichlorophenyl)cyclopropane-1-carboxamido)-N-(4-(trifluoromethyl)phenyl)benzamide] | 50 to 100% |  | pest or weed control at 50 µg/cm2 [2, 4]: 50 to 100% |
| O=C(Nc1ccccc1F)c1cc(NC(=O)[C@H]2[C@H](c3cc(Cl)cc(Cl)c3)C2(Cl)Cl)ccc1Cl (relative stereo) [F17, trans-2-Chloro-5-(2,2-dichloro-3-(3,5-dichlorophenyl)cyclopropane-1-carboxamido)-N-(2-fluorophenyl)benzamide] | 50 to 100% |  | pest or weed control at 50 µg/cm2 [2, 4]: 50 to 100% |
| O=C(Nc1cccc(Cl)c1)c1cc(NC(=O)[C@H]2[C@H](c3cc(Cl)cc(Cl)c3)C2(Cl)Cl)ccc1Cl (relative stereo) [F43, trans-2-Chloro-N-(3-chlorophenyl)-5-(2,2-dichloro-3-(3,5-dichlorophenyl)cyclopropane-1-carboxamido)benzamide] | 50 to 100% |  | pest or weed control at 50 µg/cm2 [2, 4]: 50 to 100% |
| O=C(Nc1ccc(F)cc1)c1cc(NC(=O)[C@H]2[C@H](c3cc(Cl)cc(Cl)c3)C2(Cl)Cl)c(F)cc1Cl (relative stereo) [F48, trans-2-Chloro-5-(2,2-dichloro-3-(3,5-dichlorophenyl)cyclopropane-1-carboxamido)-4-fluoro-N-(4-fluorophenyl)benzamide] | 50 to 100% |  | pest or weed control at 50 µg/cm2 [2, 4]: 50 to 100% |
| CSc1nc(NC(=O)c2cc(NC(=O)[C@H]3[C@H](c4cc(Cl)cc(Cl)c4)C3(Cl)Cl)ccc2Cl)n[nH]1 (relative stereo) [F184, trans-2-Chloro-5-(2,2-dichloro-3-(3,5-dichlorophenyl)cyclopropane-1-carboxamido)-N-(5-(methylthio)-1H-1,2,4-triazol-3-yl)benzamide] |  |  | pest or weed control at 50 µg/cm2 [2, 4]: 50 to 100% |
| Cc1cc(N(C)C(=O)OC(C)(C)C)ccc1NC(=O)c1cc(NC(=O)[C@H]2[C@H](c3ccc(F)c(Cl)c3)C2(Cl)Cl)ccc1Cl (relative stereo) [F219, trans-tert-Butyl-(4-(2-chloro-5-(2,2-dichloro-3-(3-chloro-4-fluorophenyl)cyclopropane-1-carboxamido)benzamido)-3-methylphenyl)(methyl)carbamate] | 50 to 100% |  |  |
| CNc1ccc(NC(=O)c2cc(NC(=O)[C@H]3[C@H](c4cc(Cl)cc(Cl)c4)C3(Cl)Cl)c(Cl)cc2Cl)cc1 (relative stereo) [F256, trans-2,4-dichloro-5-(2,2-dichloro-3-(3,5-dichlorophenyl)cyclopropane-1-carboxamido)-N-(4-(methylamino)phenyl)benzamide] | 0 to 50% |  |  |
| CC(C)(C)OC(=O)N(C(=O)OC(C)(C)C)c1c(F)ccc(NC(=O)c2cc(NC(=O)[C@H]3[C@H](c4cc(Cl)cc(Cl)c4)C3(Cl)Cl)ccc2Cl)c1F (relative stereo) [F468, trans-tert-Butyl-N-((tert-butoxy)carbonyl)-N-(3-(2-chloro-5-(2,2-dichloro-3-(3,5-dichlorophenyl)cyclopropane-1-carboxamido)benzamido)-2,6-difluorophenyl)carbamate] |  | 0 to 50% |  |
| CC(C)(C)OC(=O)N1CCc2cc(NC(=O)c3cc(NC(=O)[C@H]4[C@H](c5cc(Cl)cc(Cl)c5)C4(Cl)Cl)ccc3Cl)ccc21 (relative stereo) [F509, tert-Butyl 5-(2-chloro-5-(trans)-(2,2-dichloro-3-(3,5-dichlorophenyl)cyclopropane-1-carboxamido)benzamido)indoline-1-carboxylate] |  | 0 to 50% |  |
| CC(C)(C)OC(=O)N(C(=O)OC(C)(C)C)c1c(F)ccc(NC(=O)c2cc(NC(=O)[C@H]3[C@H](c4cc(Cl)cc(C#N)c4)C3(Cl)Cl)ccc2Cl)c1F (relative stereo) [F515, trans-tert-Butyl-N-((tert-butoxy)carbonyl)-N-(3-(2-chloro-5-(2,2-dichloro-3-(3-chloro-5-cyanophenyl)cyclopropane-1-carboxamido)benzamido)-2,6-difluorophenyl)carbamate] |  |  | pest or weed control at 50 µg/cm2 [2, 6]: 50 to 100% |
| CCc1cc(C(F)(C(F)(F)F)C(F)(F)C(F)(F)F)cc(CC)c1NC(=O)c1cc(NC(=O)[C@H]2[C@H](c3cc(Cl)cc(Cl)c3)C2(Cl)Cl)ccc1Cl (relative stereo) [PF59, trans-2-Chloro-5-(2,2-dichloro-3-(3,5-dichlorophenyl)cyclopropane-1-carboxamido)-N-(2,6-diethyl-4-(perfluorobutan-2-yl)phenyl)benzamide] |  | 0 to 50% |  |
| CCc1cc(C(F)(C(F)(F)F)C(F)(F)F)cc(CC)c1NC(=O)c1cc(NC(=O)[C@H]2[C@H](c3cc(Cl)cc(Cl)c3)C2(Cl)Cl)ccc1Cl (relative stereo) [PF61, trans-2-Chloro-5-(2,2-dichloro-3-(3,5-dichlorophenyl)cyclopropane-1-carboxamido)-N-(2,6-diethyl-4-(perfluoropropan-2-yl)phenyl)benzamide] |  | 0 to 50% |  |
| Cc1cc(N(C)C(=O)OC(C)(C)C)ccc1N(C)C(=O)c1cc(NC(=O)C2C(c3cc(Cl)c(Cl)c(Cl)c3)C2(Cl)Cl)ccc1Cl [F221, trans-tert-Butyl-(4-(2-chloro-5-((1R,3R)-2,2-dichloro-3-(3,4,5-trichlorophenyl)cyclopropane-1-carboxamido)-N-methylbenzamido)-3-methylphenyl)(methyl)carbamate] | 50 to 100% |  |  |
| CC1(c2cc(Cl)cc(Cl)c2)C(C(=O)Nc2ccc(Cl)c(C(=O)Nc3ccc(F)cc3)c2)C1(Cl)Cl (stereo not drawn) [F253, 2-Chloro-5-cis-2,2-dichloro-3-(3,5-dichlorophenyl)-3-methylcyclopropane-1-carboxamido)-N-(4-fluorophenyl)benzamide] |  |  | CL (Biological Results, rating) ([2]; Species CL (Cabbage Looper)): A (50-100) |
| CC(C)(C)OC(=O)N(C(=O)OC(C)(C)C)c1c(F)ccc(NC(=O)c2cc(NC(=O)[C@H]3[C@H](c4cc(Cl)cc(Cl)c4)C3(Cl)Cl)ccc2Cl)c1F [F499, tert-Butyl-N-((tert-butoxy)carbonyl)-N-(3-(2-chloro-5-((1R,3R)-2,2-dichloro-3-(3,5-dichlorophenyl)cyclopropane-1-carboxamido)benzamido)-2,6-difluorophenyl)carbamate] |  | 50 to 100% |  |
| CC(C)(C)OC(=O)N(C(=O)OC(C)(C)C)c1c(F)ccc(NC(=O)c2cc(NC(=O)[C@H]3[C@H](c4cc(Cl)c(Cl)c(Cl)c4)C3(Cl)Cl)ccc2Cl)c1F [F501, tert-Butyl-N-((tert-butoxy)carbonyl)-N-(3-(2-chloro-5-((1R,3R)-2,2-dichloro-3-(3,4,5-trichlorophenyl)cyclopropane-1-carboxamido)benzamido)-2,6-difluorophenyl)carbamate] |  | 0 to 50% |  |
| CC(C)(C)OC(=O)N(C(=O)OC(C)(C)C)c1c(F)ccc(NC(=O)c2cc(NC(=O)C3C(c4cc(Cl)cc(Br)c4)C3(Cl)Cl)ccc2Cl)c1F (centres unmarked) [F514, tert-Butyl-N-((tert-butoxy)carbonyl)-N-(3-(5-(3-(3-bromo-5-chlorophenyl)-2,2-dichlorocyclopropane-1-carboxamido)-2-chlorobenzamido)-2,6-difluorophenyl)carbamate] |  | 50 to 100% |  |
| CC(C)(C)OC(=O)N(C(=O)OC(C)(C)C)c1c(F)cc(F)cc1NC(=O)c1cc(NC(=O)[C@H]2[C@H](c3cc(Cl)cc(Cl)c3)C2(Cl)Cl)ccc1Cl [F521, tert-Butyl-N-((tert-butoxy)carbonyl)-N-(2-(2-chloro-5-((1R,3R)-2,2-dichloro-3-(3,5-dichlorophenyl)cyclopropane-1-carboxamido)benzamido)-4,6-difluorophenyl)carbamate] |  |  | pest or weed control at 50 µg/cm2 [2, 6]: 0 to 50% |
| C=Cc1cc(Cl)cc(C2C(C(=O)Nc3ccc(Cl)c(C(=O)Nc4ccc(F)c(N(C(=O)OC(C)(C)C)C(=O)OC(C)(C)C)c4F)c3)C2(Cl)Cl)c1 (centres unmarked) [F523, tert-Butyl-N-((tert-butoxyl)carbonyl)-N-(3-(2-chloro-5-(2,2-dichloro-3-(3-chloro-5-vinylphenyl)cyclopropane-1-carboxamido)benzamido)-2,6-difluorophenyl)carbamate] |  | 0 to 50% |  |
| O=C(Nc1cc(Cl)c(Cl)c(Cl)c1)c1cc(NC(=O)C2C(c3cc(Cl)cc(Cl)c3)C2(Cl)Cl)ccc1Cl (stereo not drawn) [PF119, 2-Chloro-5-(trans)-2,2-dichloro-3-(3,5-dichlorophenyl)cyclopropane-1-carboxamido)-N-(3,4,5-trichlorophenyl)benzamide] |  | 50 to 100% |  |
